Measurements: the NIST ThermoML archive (doi:10.1007/s10765-006-0092-8)
± gives the expanded uncertainty stated by the source.

Conditions: gamma-ray densimeter

Fc1c(F)c(F)c(F)c(F)c1F [hexafluorobenzene]
mass density [kg/m3]
Conditions | Gas | Liquid
298.79 K | – | 1605.4 ± 3
323.83 K | 2.3 | 1548.5 ± 3
343.88 K | – | 1499.4 ± 3
363.85 K | – | 1450.5 ± 3
383.91 K | 15.5 ± 3 | 1397.9 ± 3
403.92 K | 25.8 ± 3 | 1342.1 ± 3
423.93 K | 40.6 ± 3 | 1281.2 ± 3
443.9 K | 62.7 ± 3 | 1213.9 ± 3
463.89 K | 95.3 ± 3 | 1135.3 ± 3
483.9 K | 146.7 ± 3 | 1037.1 ± 3.1
493.93 K | 186 ± 3 | 974 ± 3.1
503.88 K | 243.5 ± 3.1 | 892.3 ± 3.1
508.9 K | 287 ± 3.2 | 835.8 ± 3.3
513.91 K | 363.5 ± 3.6 | 744.6 ± 3.7
513.92 K | 363.5 ± 3.6 | 746.3 ± 3.7
515.98 K | 433.7 ± 10 | 670.3 ± 11
516.28 K | 455.8 ± 10 | 644.8 ± 11
516.57 K | 491.5 ± 10 | 610.1 ± 11
